In publication PMC8225008, “Development of Non-Ethoxypropanoic Acid Type Cryptochrome Inhibitors with Circadian Molecular Clock-Enhancing Activity by Bioisosteric Replacement” (Pharmaceuticals, 2021):

Experiments:
E-box-LUC reporter = experiment: E-box-LUC luciferase reporter assay, dose-response in stably transfected NIH3T3 cells; format: cell-based; settings: Mus musculus, E-box-LUC reporter activity, NIH3T3, 36 h; for Emax: maximum response as a percentage of the vehicle-treated group, read-out: Max (%)
Method: (§1) Materials for cell culture were purchased from Thermo Fisher Scientific, unless otherwise stated. NIH3T3 and HEK293T cells were maintained in Dulbecco’s modified Eagle medium supplemented with 5% fetal bovine serum and 100 U/mL penicillin/streptomycin in a humidified atmosphere containing 5% CO2 at 37 °C. Plasmids and transfection experiments for luciferase reporter assay were described in our previous report. For dose-response experiments, mouse NIH3T3 cells stably transfected with an E-box-LUC reporter were plated in 12-well culture plates, treated as indicated for 36 h, and subjected to luciferase assay. For transient transfections, we seeded HEK293T cells in 12-well culture plates and used Lipofectamine® 3000 reagent to transfect cells with the E-box-LUC reporter and the indicated clock gene expression plasmids together with a thymidine kinase promoter-driven Renilla luciferase (pRL-TK) plasmids. We kept total DNA levels constant by adding an empty pcDNA3.1 plasmid. After 24 h of transfection, cells were treated with vehicle (0.1% DMSO) or chemical compounds at various concentrations for 36 h. Cell extracts were prepared by incubating cells in 0.3 mL reporter lysis buffer for 15 min at room temperature. Luciferase activity was measured with a commercial dual luciferase assay kit (Promega, Madison, WI, USA).
(§2) The EC50 values for luciferase reporter assay were calculated based on a logistic four-parametric equation using the mean values of intrinsic activation (SigmaPlot 10.0; Systat Software Inc., San Jose, CA, USA). The IC50 and t1/2 values for the cytochrome P450 inhibition assay and metabolic stability test were calculated by WinNonlin software (Pharsight, Mountain View, CA, USA). Pharmacokinetic parameters were calculated using non-compartmental analysis (WinNonlin v.8.3; Pharsight, Mountain View, CA, USA). Kinetic and equilibrium constants for SPR analysis were obtained by global fitting of the Langmuir 1:1 bimolecular kinetic model (ProteOn Manager v.3.1.0.6, Bio-Rad, Hercules, CA, USA). Circadian molecular clock-enhancing activities were expressed as means ± SE and statistically evaluated by Student’s t-test or one-way analysis of variance (ANOVA) followed by Newman–Keuls multiple comparison test for post hoc comparisons. The significance level for the analyses was set at p < 0.05.

hCRY1 = molecular target: T1, hCRY1 (Homo sapiens, UniProt Q16526); experiment: Suppressive action of CRY1 on CLOCK:BMAL1-activated E-box-LUC reporter activity in transiently transfected HEK293T cells; format: cell-based; design: expressed in transfected cells; host or cells: HEK293T; settings: co-expression of human CRY1, 36 h treatment
T1 sequence (Q16526 1-586): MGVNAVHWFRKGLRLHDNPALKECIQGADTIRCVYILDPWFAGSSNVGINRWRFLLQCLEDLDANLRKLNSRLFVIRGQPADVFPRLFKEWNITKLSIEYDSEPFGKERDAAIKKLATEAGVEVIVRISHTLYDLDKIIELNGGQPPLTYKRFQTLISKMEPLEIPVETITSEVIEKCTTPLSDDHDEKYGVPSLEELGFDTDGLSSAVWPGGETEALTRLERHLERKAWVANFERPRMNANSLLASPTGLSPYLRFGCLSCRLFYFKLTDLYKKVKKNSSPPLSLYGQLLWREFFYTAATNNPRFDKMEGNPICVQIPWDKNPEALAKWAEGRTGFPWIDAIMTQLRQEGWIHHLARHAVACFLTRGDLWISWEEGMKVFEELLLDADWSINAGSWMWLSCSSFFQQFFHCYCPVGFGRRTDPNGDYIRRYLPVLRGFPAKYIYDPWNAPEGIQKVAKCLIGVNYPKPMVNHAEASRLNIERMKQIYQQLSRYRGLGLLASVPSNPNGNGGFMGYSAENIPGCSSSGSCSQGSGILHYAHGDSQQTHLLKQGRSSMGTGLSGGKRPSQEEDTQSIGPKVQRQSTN
Method: as §1

[1] = Metabolic stability test in pooled human liver microsomes; format: in vitro ADME; settings: pooled HLMs 1.0 mg/mL, 1 μM compound, NADPH generating system, read-out: t1/2 in HLMs
Method: The metabolic stability of KS15, 5d, or 2d was evaluated using pooled HLMs. Pooled HLMs (1.0 mg/mL), a potassium phosphate buffer, and a test compound (1 μM) were pre-incubated (37 °C, 5 min). To initiate the reaction, the NADPH generating system was added to the samples and incubated for specific time points (0, 5, 15, 20, 45, and 60 min). Then, aliquots were taken and reactions terminated in acetonitrile containing IS. After centrifugation, supernatants were analyzed using LC-MS/MS to determine KS15, 5d, or 2d concentrations in samples. Analyte separation was performed using a Kinetex C18 column (100 mm × 2.1 mm, 2.6 μm ID., Phenomenex). The mobile phase solvent A was 0.1% formic acid in water, and solvent B was 0.1% formic acid in acetonitrile. Gradient separation was performed as follows: 0–3 min (10–90% B) and 3.1–8 min (10% B). The flow rate was 0.2 mL/min, and the run time was 8 min for each sample. Electrospray ionization was conducted in positive ion mode at 4 kV. […] Quantitation was performed in the SRM of the [M+H]^+ ion and the related product ion for each test compound and IS: KS-15 (m/z 420 > 169, CE 30 eV), 5d (m/z 359 > 206, CE 20 eV), 2d (m/z 345 > 192, CE 22 eV), and IS (m/z 295 > 100, CE 17 eV).
as §2, with “Kinetic and equilibrium constants for SPR analysis were obtained by global fitting of the Langmuir 1:1 bimolecular kinetic model (ProteOn Manager v.3.1.0.6, Bio-Rad, Hercules, CA, USA).” left out, “The significance level for the analyses was set at p < 0.05.” left out

[2] = system: Per2-luciferase knock-in (Per2-Luc-KI) fibroblast cultures; experiment: Real-time bioluminescence monitoring of DEX-synchronized Per2-Luc-KI fibroblast cultures; format: cell-based, mouse; settings: 20 μM, DEX-synchronized Per2-Luc-KI fibroblasts
Method: For real-time bioluminescence monitoring, we used mouse embryonic fibroblast (MEF) cultures established from Per2-LUC-KI mice. […] The medium was then replaced with a recording medium containing 0.1 mM D-luciferin (Promega) along with vehicle (0.1% DMSO), KS15 (20 μM), 5d (20 μM), or 2d (20 μM). Light emission for 2 min at intervals of 20 min was integrated using a dish-type wheeled luminometer (Kronos-Dio, ATTO Cooperation, Tokyo, Japan). Background-subtracted bioluminescence profiles were analyzed using Cosinor analysis software (available at http://www.circadian.org, last accessed on 19 May 2021).
as §2

SMILES	EC50 (E-box-LUC reporter) [µM]	Emax (E-box-LUC reporter) [%]	Effect on CRY1-suppressed CLOCK:BMAL1-activated E-box-mediated transcription (hCRY1)	half-life at 1 μM [1] [min]	Amplitude of cyclic Per2 expression [2]	Robustness of the rhythm (Cosinor regression) [2]
COC(=O)COc1cccc(C(C)=NOCc2ccc([N+](=O)[O-])cc2)c1 [Compound 5d, Methyl 2-(3-(1-(((4-nitrobenzyl)oxy)imino)ethyl)phenoxy)acetate]	6.44	193	dose-dependently restored E-box-mediated transcriptional activities	2.4	significantly augmented the amplitude	barely affect the robustness
CC(=NOCc1ccc([N+](=O)[O-])cc1)c1cccc(OCC(=O)O)c1 [Compound 2d, 2-(3-(1-(((4-nitrobenzyl)oxy)imino)ethyl)phenoxy)acetic acid]	10.2	161	dose-dependently restored E-box-mediated transcriptional activities	> 60	significantly augmented the amplitude	barely affect the robustness
